For one compound, inhibition results are on record in patent publication US11147792B2, “Inhibitors of microbially induced amyloid” (Axial Therapeutics, Inc, priority 2017, dated 2021).

The target in assay [1] is T1, α-synuclein seeded by E. coli CsgA (Homo sapiens, UniProt P37840).
T1 construct: made in house; host or cells: E. coli NEB 3016 slyD::kan (CsgA, pET11d); E. coli (α-synuclein)
Description: In vitro Thioflavin T assay of CsgA-seeded α-synuclein aggregation. It counts as biochemical. The note with it: compounds at 50 μM; 2 μM CsgA, 50 μM α-synuclein; ThT fluorescence at 40 hours; read-out: Inhibition of Aggregation CsgA-seeded αSyn. The method, then: In Vitro Thioflavin T Assay to Determine the Effects of Compounds on CsgA-Seeded α-Synuclein Aggregation.
To induce over-expression of CsgA, 0.5 mM IPTG was added to cultures with an optical density at 600 nm (OD600) of 0.8-1, and induced cells were cultured at 37° C. for 1 hour prior to harvest via centrifugation. […] Buffers with imidazole were freshly prepared prior to the protein purification. Purified CsgA was passed through a 30 kDa molecular weight cut-off filter and through a desalting column. All steps of the CsgA purification in the absence of guanidine hydrochloride were conducted in rapid succession with as little delay as possible. […] The ammonium sulfate pellet was washed with an equal volume of 100 mM ammonium acetate in ethanol, pelleted via centrifugation, washed twice with ethanol, dried overnight, resuspended in 10 mM Tris pH 7.4, and passed through a 50 kDa cut-off column. The assay was conducted in 96-well black microplates with a single glass 2 mm bead per well, 40 μM ThioflavinT, 1% DMSO, 2 μM CsgA, 50 μM α-synuclein, 100 mM sodium chloride, 9.3 mM potassium phosphate pH 7.3, and compounds at 50 μM. […] The effect of compounds on CsgA-seeded α-synuclein aggregation in the assay was determined with data from 40 hours, following the plateau of the fluorescent signal in the untreated (no compound) control wells containing CsgA and α-synuclein. Fluorescence values for each compound with CsgA and α-synuclein were first adjusted by subtracting the average fluorescence of the compound in the absence of CsgA and α-synuclein.

The next assay deals with T2, E. coli CsgA (Escherichia coli, UniProt P28307).
T2 construct: made in house; host or cells: E. coli NEB 3016 slyD::kan, pET11d
T2 sequence (P28307 23-151): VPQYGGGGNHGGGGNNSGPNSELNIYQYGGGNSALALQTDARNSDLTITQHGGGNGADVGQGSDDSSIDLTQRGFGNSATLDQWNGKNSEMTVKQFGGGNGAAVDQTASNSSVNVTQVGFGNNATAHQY
In words: In vitro ThioflavinT assay of CsgA aggregation. In kind it is biochemical. As to conditions: CsgA at 20 μM, ThT fluorescence at 18 hours. The method, then:
In Vitro ThioflavinT Assay to Determine Effects of Compounds on CsgA Aggregation.
To assess the effects of compounds on aggregation of E. coli CsgA, a cell-free assay was performed using purified CsgA and Thioflavin T. In the assay, histidine-tagged CsgA was over-expressed in E. coli NEB 3016 slyD::kan cells harboring a pET11d vector containing csgA with the sequence for 6 histidine residues added to the C-terminus and without the Sec signal (amino acid 1-22) sequence. To induce over-expression of CsgA, 0.5 mM isopropyl β-D-1-thiogalactopyranoside (“IPTG”) was added to cultures with an optical density at 600 nm (OD600) of 0.8-1, and induced cells were cultured at 37° C. for 1 hour prior to harvest via centrifugation. Cells were lysed under denaturing conditions with 8 M guanidine hydrochloride in 50 mM potassium phosphate buffer pH 7.3, and CsgA was purified via immobilized-metal affinity chromatography by batch purification with Nickel-NTA agarose and a combination of low pressure and gravity flow through a disposable polypropylene column, including washes under low pressure applied manually via application of a syringe plunger to the column with 50 mM potassium phosphate buffer pH 7.3 followed by 12.5 mM imidazole in 50 mM potassium phosphate buffer pH 7.3, and elution by gravity flow with 125 mM imidazole in 50 mM potassium phosphate buffer pH 7.3. Buffers with imidazole were freshly prepared prior to the protein purification. Purified CsgA was passed through a 30 kDa molecular weight cut-off filter and passed through a desalting column. All steps of the CsgA purification in the absence of guanidine hydrochloride were conducted in rapid succession with as little delay as possible. The assay was conducted in 96-well black microplates with 40 μM ThioflavinT, 1% DMSO, CsgA at 20 μM, and compounds at 20 μM. Plates were incubated at 25° C. in a Tecan Nano F200 plate reader with excitation at 438 nm using a 439 nm filter with a bandwidth of 8 nm, and emission at 495 nm with a 490 nm filter with a bandwidth of 10 nm. During the assay, plates were shaken initially for 5 seconds and subsequently for 3 seconds prior to fluorescent readings. Readings were performed every 20 minutes for up to 24 hours. The effect of compounds on CsgA aggregation in the assay was determined with data from 18 hours, following the plateau of the fluorescent signal in the untreated (no compound) control wells containing CsgA. Fluorescence values for each compound with CsgA were first adjusted by subtracting the average fluorescence of the compound in the absence of CsgA. These adjusted values were normalized by dividing them by the average fluorescence in the no-compound (i.e., untreated) control wells containing CsgA […], and the average normalized fluorescence with the compound was expressed as a percentage of the average fluorescence observed in untreated controls.

Like-named read-outs stand apart in the source and are kept apart here.

By inhibition is commonly meant the drop in the measured response relative to a control, in per cent. Consider `O=C(O[C@@H]1Cc2c(O)cc(O)cc2O[C@@H]1c1cc(O)c(O)c(O)c1)c1cc(O)c(O)c(O)c1` [EGCG, epigallocatechin gallate], for which the inhibition at 50 µM in assay [1] was found to be 77%. In addition, the inhibition at 20 µM at E. coli CsgA (read-out: Inhibition of Aggregation CsgA (compound activity range), compounds at 20 μM) is 30 to 60%; on E. coli CsgA (read-out: Inhibition of Aggregation CsgA, compounds at 20 μM) it was 56%.
